Literature values, collected in publication PMC7395068, “The evolution of strategies to minimise the risk of human drug-induced liver injury (DILI) in drug discovery and development” (Archives of Toxicology, 2020).
Where two headings read alike, the source gives them in different places.

Columns and labels:
PHH spheroids = conditions: In vitro Assay; ref Vorrink 2018; cited from earlier work
[1] = system: HepG2 cells, primary human hepatocytes; conditions: cited from earlier work
HepG2 cells [2] = conditions: In vitro Assay; ref Persson 2013; cited from earlier work
[3] = cited from earlier work
human hepatocytes = conditions: In vitro Assay; ref Xu 2008; cited from earlier work
HepG2 cells [4] = conditions: In vitro Assay; ref O'Brien 2006; cited from earlier work
hLiMTs = conditions: In vitro Assay; ref Proctor 2017; cited from earlier work
PHH = conditions: In vitro Assay; ref Proctor 2017; cited from earlier work
[5] = system: isolated mouse liver mitochondria; conditions: In vitro Assay; ref Porceddu 2012; cited from earlier work
[6] = ref Chen 2016; cited from earlier work
rBsep = conditions: cited from earlier work
[7] = system: primary human hepatocytes, NIH3T3 fibroblasts, BSEP, CYP3A4; conditions: In vitro Assay; ref Schadt 2015; cited from earlier work
[8] = system: THLE-Null and THLE-3A4 cells; conditions: In vitro Assay; ref Gustafsson 2014; cited from earlier work
[9] = In vitro Assay, ref Garside 2014
[10] = In vitro Assay, ref Dawson 2012

SMILES | Cluster 1-6 +VE Assay [1, 9] | In vivo DILI ([3]; ref Garside 2014) | In vivo DILI ([3]; ref Gustafsson 2014) | Structural based (HCI) (human hepatocytes) | DILI +VE (5-8), DILI -VE (-4) [6] | DILI severity category [6] | Inhibition of rBsep cutoff<3 (rBsep; [10]) | Inhibition of rBsep cutoff<1& cmax u>.2 (rBsep; [10]) | In vivo DILI ([3]; ref Dawson 2012) | THLE-Null [8] | also measured
CCN(CC)Cc1cc(Nc2ccnc3cc(Cl)ccc23)ccc1O [amodiaquine] | +VE | +VE | +VE |  |  |  |  |  |  |  | hLiMTs ATP <20 x Cmax (PHH spheroids): +VE (IC20 < 20 × Cmax.tot cut-off); Cluser analysis (HepG2 cells [2]): +VE; In vivo DILI ([3]; […]): +VE; In vivo DILI ([3]; ref O'Brien 2006): +VE; In vivo DILI ([3]; ref Persson 2013): +VE; In vivo DILI ([3]; ref Proctor 2017): +VE; In vivo DILI ([3]; ref Schadt 2015): +VE; In vivo DILI ([3]; ref Vorrink 2018): +VE; In vivo DILI ([3]; ref Williams 2019): +VE
COc1ccc(CCN2CCC(Nc3nc4ccccc4n3Cc3ccc(F)cc3)CC2)cc1 [astemizole] | +VE | +VE |  | -VE |  |  |  |  |  |  | Structural based (HCI) (HepG2 cells [4]): -VE; In vivo DILI ([3]; ref O'Brien 2006): -VE; In vivo DILI ([3]; ref Xu 2008): -VE
NC(CO)C(=O)NNCc1ccc(O)c(O)c1O (stereo not shown) [benserazide] | -VE | -VE |  |  |  |  |  |  |  |  | hLiMTs ATP <100uM (hLiMTs): -VE; PHH ATP <100uM (PHH): -VE; In vivo DILI ([3]; ref Proctor 2017): -VE; In vivo DILI ([3]; ref Schadt 2015): -VE
CC(=O)Oc1ccc(C(c2ccc(OC(C)=O)cc2)c2ccccn2)cc1 [bisacodyl] | +VE | -VE |  |  | -VE | vNo-DILI-Concern |  |  |  |  | Structural based (HCI) (HepG2 cells [4]): +VE; in vitro data EC2<=1x Cmax [5]: -VE; in vitro data EC20<=2uM [5]: +VE; Cluser analysis (HepG2 cells [2]): -VE; Structural based (HCI) (HepG2 cells [2]): -VE; In vivo DILI ([3]; ref O'Brien 2006): -VE; In vivo DILI ([3]; ref Persson 2013): -VE; In vivo DILI ([3]; ref Porceddu 2012): -VE
CCCCNc1cc(C(=O)O)cc(S(N)(=O)=O)c1Oc1ccccc1 [bumetanide] | -VE |  |  | +VE |  |  |  |  |  |  | hLiMTs ATP <20 x Cmax (PHH spheroids): -VE
O=NN(CCCl)C(=O)NCCCl [carmustine] |  |  |  |  |  |  | -VE |  |  |  | Inhibition of rBsep cutoff<1& cmax u>.2 (rBsep): -VE; Cluster 1-6 +VE Assay [1]: +VE
O=C(O)[C@H]1/C(=C/CO)O[C@@H]2CC(=O)N21 [clavulanate] | -VE | +VE | +VE |  |  |  | -VE | -VE | +VE | -VE | Cellular toxicity (3T3 cells) [7]: -VE; Combined Assay [7]: -VE; GSH adduct HML [7]: -VE; Hepatocyte cellular toxicity [7]: -VE; MitoTox 3T3 [7]: -VE; TDI CYP3A4 [7]: -VE; hBSEP inhibition [7]: -VE; In vivo DILI ([3]; […]): -VE; In vivo DILI ([3]; ref Schadt 2015): +VE; THLE-Null/3A4 [8]: -VE
O=C(O)c1cc(=O)c2c(OCC(O)COc3cccc4oc(C(=O)O)cc(=O)c34)cccc2o1 [cromolyn] | -VE |  |  | -VE |  |  | -VE | -VE |  |  | 
Nc1ccc(S(=O)(=O)c2ccc(N)cc2)cc1 [dapsone] | +VE | +VE | +VE | -VE | +VE | vLess-DILI-Concern | -VE | -VE | +VE |  | in vitro data EC2<=1x Cmax [5]: +VE; in vitro data EC20<=2uM [5]: -VE; In vivo DILI ([3]; […]): +VE; In vivo DILI ([3]; ref Khetani 2012): +VE; In vivo DILI ([3]; ref Porceddu 2012): +VE; In vivo DILI ([3]; ref Xu 2008): +VE
Cc1nc(Nc2ncc(C(=O)Nc3c(C)cccc3Cl)s2)cc(N2CCN(CCO)CC2)n1 [dasatinib] | +VE | +VE |  |  | +VE | vLess-DILI-Concern |  |  |  |  | in vitro data EC2<=1x Cmax [5]: -VE; in vitro data EC20<=2uM [5]: +VE; In vivo DILI ([3]; ref Porceddu 2012): +VE
CCN(CC)C(=S)SSC(=S)N(CC)CC [disulfiram] | +VE |  |  |  |  |  |  |  |  | +VE | hLiMTs ATP <20 x Cmax (PHH spheroids): +VE (IC20 < 20 × Cmax.tot cut-off); in vitro data EC2<=1x Cmax [5]: +VE
CC(=O)O[C@H]1C[C@@]2(C)[C@@H](C[C@@H](O)[C@H]3[C@@]4(C)CC[C@@H](O)[C@@H](C)[C@@H]4CC[C@@]32C)/C1=C(\CCC=C(C)C)C(=O)O [fusidic acid] | -VE |  |  |  |  |  | +VE | +VE |  | +VE | 
Cc1ccc(S(=O)(=O)NC(=O)NN2CC3CCCC3C2)cc1 (stereo not shown) [gliclazide] | -VE | +VE | +VE | -VE |  |  | -VE | -VE | +VE | -VE | In vivo DILI ([3]; ref Xu 2008): -VE; THLE-Null/3A4 [8]: -VE
CN(C)CCN(Cc1cccs1)c1ccccn1 [methapyrilene] | -VE | -VE | -VE |  |  |  |  |  | -VE | -VE | hLiMTs ATP <20 x Cmax (PHH spheroids): -VE; Structural based (HCI) (HepG2 cells [4]): +VE; In vivo DILI ([3]; ref O'Brien 2006): +VE; In vivo DILI ([3]; ref Vorrink 2018): -VE
O=C1c2c(O)ccc(O)c2C(=O)c2c(NCCNCCO)ccc(NCCNCCO)c21 [mitoxantrone] | +VE |  |  | +VE |  |  |  |  |  |  | in vitro data EC2<=1x Cmax [5]: -VE
CNC(=O)Oc1ccc2c(c1)[C@]1(C)CCN(C)[C@@H]1N2C [physostigmine] | -VE | -VE | -VE |  | -VE | vNo-DILI-Concern | -VE |  | -VE | -VE | Inhibition of rBsep cutoff<1& cmax u>.2 (rBsep): -VE; In vivo DILI ([3]; ref Vorrink 2018): -VE; THLE-Null/3A4 [8]: -VE
CCCN(CCC)S(=O)(=O)c1ccc(C(=O)O)cc1 [probenecid] | +VE | +VE | +VE |  | -VE | Ambiguous DILI-concern | -VE | -VE | +VE | -VE | Cellular toxicity (3T3 cells) [7]: -VE; Combined Assay [7]: -VE; GSH adduct HML [7]: -VE; Hepatocyte cellular toxicity [7]: -VE; MitoTox 3T3 [7]: -VE; TDI CYP3A4 [7]: -VE; hBSEP inhibition [7]: -VE; In vivo DILI ([3]; ref Schadt 2015): -VE; THLE-Null/3A4 [8]: -VE
CN(CCOc1ccc(CC2SC(=O)NC2=O)cc1)c1ccccn1 (stereo not shown) [rosiglitazone] | +VE | +VE | +VE | -VE | +VE | vLess-DILI-Concern | +VE | -VE | +VE |  | hLiMTs ATP <20 x Cmax (PHH spheroids): -VE; hLiMTs ATP <100uM (hLiMTs): +VE (IC50 threshold of 100 µM); Structural based (HCI) (HepG2 cells [4]): -VE; PHH ATP <100uM (PHH): -VE; In vivo DILI ([3]; […]): -VE; In vivo DILI ([3]; ref Aleo 2019): +VE; In vivo DILI ([3]; ref O'Brien 2006): -VE; In vivo DILI ([3]; ref Proctor 2017): +VE; In vivo DILI ([3]; ref Schadt 2015): +VE; In vivo DILI ([3]; ref Vorrink 2018): -VE; In vivo DILI ([3]; ref Williams 2019): +VE; In vivo DILI ([3]; ref Xu 2008): -VE
CCCCNC(=O)NS(=O)(=O)c1ccc(C)cc1 [tolbutamide, reference compound] | +VE |  |  |  |  |  | -VE | -VE |  |  | Structural based (HCI) (HepG2 cells [4]): +VE
